The values below come from PubChem BioAssay AID1259407 (Chemical Carcinogenesis Research Information System (CCRIS), 2018).

Activity calls are given as the source filed them. The rule behind the calls is not given here.

The test system of the series is CCRIS mutagenicity, Ames/micronucleus/aberration tests. Nature of the series: CCRIS mutagenicity studies.
The mark [1] stands for this setting: Test System: AMES SALMONELLA TYPHIMURIUM, Strain/Indicator: TA98, Metabolic Activation: HAMSTER, LIVER, S-9, AROCLOR 1254 (30%), Method: PREINCUBATION
Setting [2] is: Test System: AMES SALMONELLA TYPHIMURIUM, Strain/Indicator: TA98, Metabolic Activation: NONE, Method: PREINCUBATION
Setting [3] is: Test System: AMES SALMONELLA TYPHIMURIUM, Strain/Indicator: TA98, Metabolic Activation: RAT, LIVER, S-9, AROCLOR 1254 (30%), Method: PREINCUBATION
The mark [4] stands for this setting: Test System: AMES SALMONELLA TYPHIMURIUM, Strain/Indicator: TA100, Metabolic Activation: HAMSTER, LIVER, S-9, AROCLOR 1254 (30%), Method: PREINCUBATION
Setting [5] is: Test System: AMES SALMONELLA TYPHIMURIUM, Strain/Indicator: TA100, Metabolic Activation: NONE, Method: PREINCUBATION
The mark [6] stands for this setting: Test System: AMES SALMONELLA TYPHIMURIUM, Strain/Indicator: TA100, Metabolic Activation: RAT, LIVER, S-9, AROCLOR 1254 (30%), Method: PREINCUBATION
The mark [7] stands for this setting: Test System: AMES SALMONELLA TYPHIMURIUM, Strain/Indicator: TA98, Metabolic Activation: NONE, Method: STANDARD PLATE.
Setting [8] is: Test System: AMES SALMONELLA TYPHIMURIUM, Strain/Indicator: TA100, Metabolic Activation: NONE, Method: STANDARD PLATE.

In the case of `CC1OC1C` (configuration not stated), the mutagenic call reads like this: (Test System: AMES SALMONELLA TYPHIMURIUM, Strain/Indicator: TA97, Metabolic Activation: HAMSTER, LIVER, S-9, AROCLOR 1254 (30%), Method: PREINCUBATION) “inactive; negative”; (Test System: AMES SALMONELLA TYPHIMURIUM, Strain/Indicator: TA97, Metabolic Activation: NONE, Method: PREINCUBATION) “inactive; negative”; (Test System: AMES SALMONELLA TYPHIMURIUM, Strain/Indicator: TA97, Metabolic Activation: RAT, LIVER, S-9, AROCLOR 1254 (30%), Method: PREINCUBATION) “inactive; negative”; under setting [1], “inactive; negative”; under setting [2], “inactive; negative”; under setting [3], “inactive; negative”. For the same molecule, the mutagenic call is “inactive; negative” under setting [4]; “inactive; negative” under setting [5]; “inactive; negative” under setting [6]; “active; positive” (Test System: AMES SALMONELLA TYPHIMURIUM, Strain/Indicator: TA1535, Metabolic Activation: HAMSTER, LIVER, S-9, AROCLOR 1254 (30%), Method: PREINCUBATION); “active; positive” (Test System: AMES SALMONELLA TYPHIMURIUM, Strain/Indicator: TA1535, Metabolic Activation: RAT, LIVER, S-9, AROCLOR 1254 (30%), Method: PREINCUBATION); “inactive; negative” (Test System: AMES SALMONELLA TYPHIMURIUM, Strain/Indicator: TA1537, Metabolic Activation: HAMSTER, LIVER, S-9, AROCLOR 1254 (30%), Method: PREINCUBATION). Further, the mutagenic call is “inactive; negative” (Test System: AMES SALMONELLA TYPHIMURIUM, Strain/Indicator: TA1537, Metabolic Activation: NONE, Method: PREINCUBATION) and “inactive; negative” (Test System: AMES SALMONELLA TYPHIMURIUM, Strain/Indicator: TA1537, Metabolic Activation: RAT, LIVER, S-9, AROCLOR 1254 (30%), Method: PREINCUBATION).

For the molecule `Cc1c2c3c(cccc3c3ccccc13)-c1ccccc1-2`, under “Test System: AMES SALMONELLA TYPHIMURIUM, Strain/Indicator: TA100, Metabolic Activation: RAT, LIVER, S-9, AROCLOR 1254”, the mutagenic call is “active; positive”.

As for `CC1(C)S[C@@H]2[C@H](NC(=O)Cc3ccccc3)C(=O)N2[C@H]1C(=O)O`, the mutagenic call runs as follows: under setting [7], “inactive; negative”; under setting [8], “inactive; negative”; (Test System: AMES SALMONELLA TYPHIMURIUM, Strain/Indicator: TA1537, Metabolic Activation: NONE, Method: STANDARD PLATE) “inactive; negative”; (Test System: E. COLI, Strain/Indicator: WP2 (HCR), Metabolic Activation: NONE, Method: STANDARD PLATE) “inactive; negative”.

Turning to `O=[N+]([O-])c1ccc2c3c(c(O)ccc13)-c1ccccc1-2`, the mutagenic call was “inactive; negative” (Test System: AMES SALMONELLA TYPHIMURIUM, Strain/Indicator: TA98(1,8-DNP6), Metabolic Activation: NONE, Method: STANDARD PLATE); “inactive; negative” (Test System: AMES SALMONELLA TYPHIMURIUM, Strain/Indicator: TA98(NR), Metabolic Activation: NONE, Method: STANDARD PLATE); “active; positive” under setting [7]; “inactive; negative” (Test System: AMES SALMONELLA TYPHIMURIUM, Strain/Indicator: TA100(NR), Metabolic Activation: NONE, Method: STANDARD PLATE); “inactive; negative” (Test System: AMES SALMONELLA TYPHIMURIUM, Strain/Indicator: TA100(TN5-1,8-DNP1012), Metabolic Activation: NONE, Method: STANDARD PLATE); “inactive; negative” under setting [8].

On to `CN(C)c1ccc(N)cc1`, for which the mutagenic call is “active; positive (structural changes)” (End Point: IN VITRO CHROMOSOMAL ABERRATIONS, Test System: CHINESE HAMSTER LUNG CELLS (CHL), Metabolic Activation: NONE); “inactive; negative; authors describe results at highest dose as equivocal” (End Point: IN VITRO CHROMOSOMAL ABERRATIONS, Test System: CHINESE HAMSTER LUNG CELLS (CHL), Metabolic Activation: RAT, LIVER, S-9, KC-400); “inactive; positive at highest dose; authors describe overall results as negative” (End Point: IN VITRO CHROMOSOMAL ABERRATIONS, Test System: CHINESE HAMSTER OVARY CELLS (CHO), Metabolic Activation: NONE); “inactive; negative” (End Point: IN VITRO CHROMOSOMAL ABERRATIONS, Test System: CHINESE HAMSTER OVARY CELLS (CHO), Metabolic Activation: RAT, LIVER, S-9, AROCLOR 1254); “active; positive” under setting [1]; “inactive; negative” under setting [2]. Besides, the mutagenic call under setting [3] was “active; positive”; the mutagenic call under setting [4] was “inactive; negative”; the mutagenic call under setting [5] was “inactive; negative”; the mutagenic call under setting [6] is “inactive; negative”; the mutagenic call (Test System: Ames Salmonella typhimurium, Strain/Indicator: TA102, Metabolic Activation: None, Method: Preincubation) was “inactive; negative”; the mutagenic call (Test System: Ames Salmonella typhimurium, Strain/Indicator: TA102, Metabolic Activation: Rat, Liver, S9, Aroclor 1254, Method: Preincubation) is “active; positive”. The mutagenic call by setting is: (Test System: Ames Salmonella typhimurium, Strain/Indicator: TA104, Metabolic Activation: None, Method: Preincubation) “inactive; negative”; (Test System: Ames Salmonella typhimurium, Strain/Indicator: TA104, Metabolic Activation: Rat, Liver, S9, Aroclor 1254, Method: Preincubation) “active; positive”.

Turning to `COC1=CC(=O)c2c(nc(C)c3c2[nH]c2ccncc23)C1=O`, the mutagenic call runs as follows: (Test System: AMES SALMONELLA TYPHIMURIUM, Strain/Indicator: TA97A, Metabolic Activation: NONE, Method: STANDARD PLATE) “active; positive”; (Test System: AMES SALMONELLA TYPHIMURIUM, Strain/Indicator: TA97A, Metabolic Activation: RAT LIVER S-9, AROCLOR 1254, Method: STANDARD PLATE) “inactive; negative”; under setting [7], “active; positive”; (Test System: AMES SALMONELLA TYPHIMURIUM, Strain/Indicator: TA98, Metabolic Activation: RAT LIVER S-9, AROCLOR 1254, Method: STANDARD PLATE) “active; positive”; under setting [8], “active; positive”; (Test System: AMES SALMONELLA TYPHIMURIUM, Strain/Indicator: TA100, Metabolic Activation: RAT LIVER S-9, AROCLOR 1254, Method: STANDARD PLATE) “active; positive”. Besides, the mutagenic call is “active; positive” (Test System: AMES SALMONELLA TYPHIMURIUM, Strain/Indicator: TA102, Metabolic Activation: NONE, Method: STANDARD PLATE) and “active; positive” (Test System: AMES SALMONELLA TYPHIMURIUM, Strain/Indicator: TA102, Metabolic Activation: RAT LIVER S-9, AROCLOR 1254, Method: STANDARD PLATE).

`Nc1nc(F)nc2c1ncn2[C@@H]1O[C@H](CO)[C@@H](O)[C@@H]1O`: the mutagenic call (Test System: CHINESE HAMSTER OVARY, Strain/Indicator: CHO/6-THIOGUANINE, Metabolic Activation: NONE) is “active; positive”.

For the molecule `NNc1nncc2cnccc12`, the mutagenic call is “active; positive” under setting [2]; “active; positive” (Test System: AMES SALMONELLA TYPHIMURIUM, Strain/Indicator: TA98, Metabolic Activation: RAT, LIVER, S-9, PCB, Method: PREINCUBATION); “active; positive” under setting [5]; “active; positive” (Test System: AMES SALMONELLA TYPHIMURIUM, Strain/Indicator: TA100, Metabolic Activation: RAT, LIVER, S-9, PCB, Method: PREINCUBATION).
